Earlier results in patent US20020192774A1, “Method for processing lignocellulosic material” (priority 2000, published 2002).

System: yeast
Conditions: pH values as low as 4.5; Taherzadeh et al., 1997

## CC(=O)O [Acetic acid]
  acetate concentration at which yeast is able to grow: 10 g acetate per litre
